The results in this text go back to patent publication US9260481B2, “Peptide derivatives as antibiotics” (priority 2011, dated 2016).

The nature of data set [1]: Cytotoxicity test (MTS). Type of data set: cell-based. Particulars: human; for CC50 at 72 h: MTS; for viability at 72 h: dose of up to 100 μg/mL, read-out: cell viability. How it is done:
The cytotoxicity of the Odilomycins A-C was investigated against Human colon adenocarcinoma (HT29) cells and Human normal lung fibroblasts (MRC-5) cells. 200 μL of the cell suspension of HT29 (human colorectal adenocarcinoma) prepared in RPMI 1640+1% L-Glutamine supplemented with 10% (v/v) fetal calf serum and 200 μL of the cell suspension of MRC5 (human lung fibroblast) prepared in Dulbecco's modified Eagle's medium supplemented with 25 mM glucose and 10% (v/v) fetal calf serum were inoculated into 96-well plates.
The inoculating cell number was 800 cells per well for HT29 and 2100 cells per well for MRC-5. The microplates were incubated at 37° C. for 24 h with 5% of CO2.
Twenty four hours later, Odilomycin A, B or C dissolved in water were added for 72 h at a final concentration from 0.78 μg/mL to 100 μg/mL in a fixed volume of water (1% final concentration). […] Experiments were done in triplicate.

For data set [2], the system named is P. aeruginosa ATCC 27853. Type of data set: cell-based, Pseudomonas aeruginosa. Particulars: ATCC 27853, 24 h. The method, then:
(§1) Minimal bactericidal concentrations (MBCs) were established by extending the MIC procedure to the evaluation of bactericidal activity. After 24 hours, 10 μL were drawn from the wells, serially diluted and then spotted onto suitable agar plates. The plates were incubated at 37° C. overnight. […] All the experiments were done in triplicate.

The subject of data set [3] is S. aureus ATCC 13709. Type of data set: cell-based, Staphylococcus aureus. Particulars: ATCC 13709, 24 h. How it is done:
as §1

Data set [4] has as its system Pseudomonas aeruginosa. How it is done: (§2) The minimal inhibitory concentrations (MIC) were determined according to the Clinical and Laboratory Standards Institute (CLSI) conditions guidelines detailed in Table 7. Assays were performed in triplicate.
(§3) Preparation of Inocula. Five to 10 well-isolated colonies were picked and resuspended in 3 ml sterile saline. The inoculum was re-suspended by vigorous shaking on a vortex mixer for 15 s. Turbidity was adjusted to McFarland standard 0.5 ([…]). The inoculum was further diluted in the appropriate media (Table 7) to give a final inoculum in each well of ˜2-8×10^5 CFU/ml.
(§4) Addition of Test Article. Stock solutions of Odilomycin A or comparator were diluted in the appropriate media to give a maximum starting concentration of 50 μg/mL in the assay. 50 μL of medium was dispensed into each well in columns two to 12 of a 96 well plate. 100 μL of the appropriate test compound solution (100 μg/mL) was dispensed into each well in column one. In the case of M. catarrhalis, M. haemolytica and P. multocida these values were doubled (a final assay volume of 200 μL was used). […] Columns 11 and 12 served as positive (no drug or test article, inoculum added), and negative (no drug, test article, or inoculum added) growth controls respectively.
(§5) Addition of Bacterial Strains. 50 μL of each inoculum suspension was added to the appropriate wells, resulting in a final volume of 100 μL consisting of 50 μL diluted compound or diluents, and 50 μL of inoculum or broth alone.

For data set [5], the system named is Bacteroides fragilis. The data set can be described thus: microbe, parasite or virus in culture. Conditions: Bacteroides fragilis, ATCC25238. The method, then:
as §2, §3, §4, §5

Data set [6] relates to Klebsiella oxytoca. Particulars: K. oxytoca clinical isolate NEB9. The method, then: as §2, §3, §4, §5
Data set [7] has as its system Escherichia coli. How it is done: as §2, §3, §4, §5
The test system of data set [8] is Klebsiella pneumoniae. How it is done: as §2, §3, §4, §5
The test system of data set [9] is Enterobacter cloacae. Conditions: E. cloacae clinical isolate 11370. How it is done:
as §2, §3, §4, §5

[10] abbreviates: HT29 colon adenocarcinoma cells.
Setting [11] is: MRC-5 normal lung fibroblasts, MRC-5 cells.

Converted amounts (≈) assume the structure as drawn. Like-named read-outs stand apart in the source and are kept apart here. Marks after values point to notes of the source that are not given here. Numbered stars: 1 amine (or outer) side, 2 acyl side, 3 side chain; on linkers, the order of the positions; unused ones are H or OH. Square brackets hold non-standard residues; d marks the D form. Peptide text beside a SMILES is read from it. * marks the point of attachment. ξ: configuration not given here. X1 = NCC(O)CCC(N[*:1])C(=O)[*:2]; ΔZArg = N=C(N)NCC/C=C(\N)C(=O)O; ξDab(3-OH) = NCC(O)C(N)C(=O)O; Orn = NCCC[CH](N)C(=O)O; NH(CH2)4NH2 = NCCCCN* Some results are limits rather than exact numbers.

On to `N=C(N)NCC/C=C(\NC(=O)C(CCCCN)NC(=O)C(Cc1cnc[nH]1)NC(=O)C1CCCN1C(=O)C(CCCN)NC(=O)CNC(=O)C(NC(=O)C(NC(=O)C(N)CCCCN)C(O)CN)C(O)CN)C(=O)NC(CCC(O)CN)C(=O)NCCCCN` (stereo not drawn) [Odilomycin B, Lys-(3-hydroxy-2,4-diaminobutanoic acid)-(3-hydroxy-2,4-diaminobutanoic acid)-Gly-Ornithine-Pro-His-Lys-(2,3-dehydroarginine)-(5-hydroxylysine)-(1,4-diaminobutane)] (H-K[ξDab(3-OH)][ξDab(3-OH)]G[Orn]PHK[ΔZArg][X1]-{NH(CH2)4NH2}; configuration not given here), for which the 50% cytotoxic concentration (CC50) at 72 h in data set [1] (setting [10]) and in data set [1] (setting [11]) was above 100 µg/mL throughout. Further, the viability at 72 h in data set [1] (setting [10]) and in data set [1] (setting [11]) was 100% in each case. Further, the minimal bactericidal concentration (MBC) in [2] was 3.12 µg/mL (≈ 2.44 µM); in data set [3] it was 0.78 µg/mL (≈ 0.609 µM).

As for `N=C(N)NCC/C=C(\NC(=O)C(CCCCN)NC(=O)C(Cc1cnc[nH]1)NC(=O)C1CCCN1C(=O)C(CCCN)NC(=O)CNC(=O)C(NC(=O)C(NC(=O)C(N)CCCCN)C(O)CN)C(O)CN)C(=O)NC(CCCCN)C(=O)NCCCCN` (stereo not drawn) [Odilomycin C, Lys-(3-hydroxy-2,4-diaminobutanoic acid)-(3-hydroxy-2,4-diaminobutanoic acid)-Gly-Ornithine-Pro-His-Lys-(2,3-dehydroarginine)-Lys-(1,4-diaminobutane)] (H-K[ξDab(3-OH)][ξDab(3-OH)]G[Orn]PHK[ΔZArg]K-{NH(CH2)4NH2}; configuration not given here), in data set [4], the MIC came to 6.25 µg/mL (≈ 4.94 µM). Moreover, the CC50 at 72 h in data set [1] (setting [10]) and in data set [1] (setting [11]) was above 100 µg/mL throughout. Further, the viability at 72 h in [1] (setting [10]) and in data set [1] (setting [11]) was 100% each time. Besides, the values for the MBC in data set [2] and in [3] were 12.5 µg/mL (≈ 9.88 µM) and 1.56 µg/mL (≈ 1.23 µM), respectively.

In turn, `Cc1ncc([N+](=O)[O-])n1CCO` [metronidazole, reference compound] came in with an MIC in data set [5] of 0.39 µg/mL (≈ 2.28 µM).

Regarding polymyxin [reference compound], the MIC in [6], in data set [7] (E. coli ATCC 25922), in data set [7] (E. coli CTX-M14 clinical isolate AEC7), in data set [7] (E. coli CTX-M15 clinical isolate MEC23), in data set [7] (E. coli TEM clinical isolate MEC12) and in data set [4] (P. aeruginosa ATCC 27853) was 0.39^c μg/mL in each case. Also, the results for the MIC in data set [8] (K. pneumoniae ATCC 43816), in data set [8] (K. pneumoniae KPC clinical isolate 2475) and in data set [9] were 0.39^c μg/mL, 0.78^c μg/mL and 0.78^c μg/mL, respectively.

As usually defined, the CC50 is the concentration that lowers cell viability or growth by half. A lower CC50 goes with greater toxicity to the cells. The viability is a per cent measure of how many cells are alive, often set against a control. For orientation: MBC means the lowest tested concentration that kills the bacteria rather than only halting them. The low end stands for more potent killing, the high end for less potent killing.
